The target of this experiment is T1, cytochrome c′ (AXCP) (Achromobacter xylosoxidans, UniProt P00138, L16G).
T1 sequence (P00138 1-127 L16G): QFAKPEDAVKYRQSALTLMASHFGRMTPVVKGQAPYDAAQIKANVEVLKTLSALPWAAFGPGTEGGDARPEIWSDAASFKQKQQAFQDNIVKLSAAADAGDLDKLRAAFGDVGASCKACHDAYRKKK
Nature of the experiment: UV-vis titration. The experiment is classed as binding.

`O=NO` [nitrite] had a Kd of 500 ± 150 µM.
